Data set [1] is described as follows: stability of the ether groups. Format: physicochemical.
Data set [2] in a line: dissolution / solvent properties for ingredients of fragrance-comprising preparations. Format: physicochemical. As to conditions: for customary ingredients in fragrance-comprising preparations. An excerpt:
The term “exceptional dissolution properties” refers to the solubility and also the solubilization in the perfumery application, i.e. both in the perfume oil itself, and also in the application matrix, such as soaps, creams, deodorants and others.
“Exceptional” dissolution properties are present for example if virtually all customary substances which can be used in such formulations are soluble in the solvent. “Good” dissolution properties are present if virtually all important substances which are used in such formulations are soluble in this solvent. “Moderate” dissolution properties are present if only a small fraction of the important substances is soluble or dispersible. Such substances, their importance and also the testing of the solubility in solvents are known to the person skilled in the art.

In the case of `CCOCC1CCC(COCC)CC1` (stereo not drawn) [Compound I, cyclohexanedimethanol diethyl ether], in data set [1], the “stability of the ether groups” value was “very high”. The toxicological properties entry in “toxicological assessment” was “toxicologically acceptable”.
Consider `CCOC[C@H]1CC[C@H](COCC)CC1` [Compound I-trans, Trans-1,4-Cyclohexanedimethanol Diethyl Ether], for which the dissolution properties entry in data set [2] was “exceptional”.
